# Paper PMC9569447 (International Journal of Molecular Sciences, 2022)
# Values joined by “and” are separate entries in the source; they are usually repeats but may differ in a detail not shown here. Identical values can stand only once. “Also recorded” adds a separate entry of the source. Like-named read-outs stand apart in the source and are kept apart here. Numbered stars: 1 amine (or outer) side, 2 acyl side, 3 side chain; on linkers, the order of the positions; unused ones are H or OH. Bridge positions count the residues as written; N and C are the ends. Square brackets hold non-standard residues; d marks the D form. Side chains are listed from the residue outwards. Peptide text beside a SMILES is read from it. * marks the point of attachment. PEG8 = NCCOCCOCCOCCOCCOCCOCCOCCOCCC(=O)O; Palmitoyl = CCCCCCCCCCCCCCCC(=O)*; hCys = N[C@@H](CCS)C(=O)O; X1 = O=C(CC[*:2])[*:1]
# Experiments:
# human V2 receptor = target: T1, human V2 receptor (Homo sapiens, UniProt P30518); experiment: In vitro functional assay at V2R (cAMP production, HTRF); assay type: cell-based; conditions: result in words
# T1 construct: expressed in transfected cells; host or cells: CHO
# Protocol: Evaluation of the agonist activity of ASK2131 at the human V2 receptor expressed in stably transfected CHO cells was conducted by measuring its effects on cAMP production using the HTRF detection method. The cells were suspended in HBSS buffer (Invitrogen, Carlsbad, CA) complemented with 20 mM HEPES (pH 7.4), 0.01% BSA and 500 μM IBMX, then distributed in microplates at a density of […] cells/well and incubated for 30 min at room temperature in the absence (control) or presence of the test compound or the reference agonist.
# For stimulated control measurement, separate assay wells contained 1 nM AVP. Following incubation, the cells were lysed, and the fluorescence acceptor (D2-labeled cAMP) and fluorescence donor (anti-cAMP antibody labeled with europium cryptate) were added. After 60 min at room temperature, the fluorescence transfer was measured at λex = 337 nm and λem = 620 and 665 nm using a microplate reader (Envision, Perkin Elmer, Waltham, MA, USA). The cAMP concentration was determined by dividing the signal measured at 665 nm by that measured at 620 nm (ratio).
# The results were expressed as a percent of the control response to 1 nM AVP. The standard reference agonist was AVP, which was tested in each experiment at several concentrations to generate a concentration-response curve from which its EC50 value was calculated.
# [1] = test system: diet-induced obese (DIO) Sprague Dawley rats; assay type: in vivo
# Source text: Male Sprague Dawley rats were fed 60% HF diet (formula: D12492; Research Diets, Inc; New Brunswick, NJ, USA; 5.21 kcal/g) for 16 weeks prior to the start of the study. Rats were then singly housed in BioDAQ cages (Research Diets, Inc.; New Brunswick, NJ, USA) and allowed to acclimate to their new environment for 10 days. Baseline measures of body weight, food intake and water intake were taken for one week to balance the groups and create feeding pairs. Each group (n = 6 animals/group) averaged 714.47 ± 81.60 g at baseline (Table 3).
# Effects of ASK2131 were compared to a vehicle-treated group, OXT-treated group, as well as a pair-fed control group. Three days of baseline measures were taken before subcutaneous treatment administration began on day 4 of the study. Assessments were made to body weight, food intake and water intake. ASK2131 was administered at 50 nmol/kg throughout the entire study period. […] OXT-treated animals were started at 50 nmol/kg dose for two days, followed by 150 nmol/kg, then 300 nmol/kg, until ending at 600 nmol/kg for the remainder of the study.
# [2] = test system: diet-induced obese (DIO) Sprague Dawley rats; experiment: Dose escalation study: body weight, food and water intake; assay type: in vivo, rat
# Source text: Male DIO Sprague Dawley rats (n = 4) were fed 60% HF diet (formula: D12492; Research Diets, Inc., New Brunswick, NJ, USA; 5.21 kcal/g) for 16 weeks prior to the start of the study. Rats were changed to being singly housed and allowed to acclimate for at least one week prior to the start of this study. Animals averaged 844.15 ± 99.95 g at baseline. Baseline measures of body weight, food intake, and water intake were taken for 6 days before drug administration began. Doses for the dose escalation study included 1, 2, 5, 10, 20, 50, and 100 nmol/kg. Body weight, food and water intake were assessed just prior to the start of the dark cycle.
# hOXTR = target: T2, hOXTR (Homo sapiens, UniProt P30559); experiment: In vitro functional assay at the OXT receptor (Ca2+ flux, fluorometric imaging plate reader); assay type: cell-based; conditions: ratio of EC50 values hOXTR/hV2R
# T2 construct: expressed in transfected cells
# T2 sequence (P30559 1-389): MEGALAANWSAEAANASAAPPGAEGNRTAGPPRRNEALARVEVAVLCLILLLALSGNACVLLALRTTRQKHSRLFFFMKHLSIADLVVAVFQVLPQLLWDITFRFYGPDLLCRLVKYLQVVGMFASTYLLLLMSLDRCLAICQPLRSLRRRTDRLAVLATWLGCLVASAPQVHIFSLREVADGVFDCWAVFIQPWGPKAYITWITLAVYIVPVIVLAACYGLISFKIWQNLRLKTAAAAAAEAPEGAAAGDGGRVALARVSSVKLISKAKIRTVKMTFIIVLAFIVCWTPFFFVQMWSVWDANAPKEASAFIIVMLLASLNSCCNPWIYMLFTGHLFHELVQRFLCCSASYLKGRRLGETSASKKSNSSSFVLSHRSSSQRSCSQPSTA
# Protocol: In a typical experimental protocol, stably transfected Chinese hamster ovary (CHO) hOTR NFAT bLac cells were plated at a density of 10,000 cells/well in a 384-well plate in growth medium (Dulbecco’s modified Eagle’s medium + Glutamax (Thermo Fisher Scientific, Waltham, MA, USA), 10% dialyzed fetal bovine serum). The next day calcium-sensitive, fluo-4 dye (Invitrogen, Carlsbad, CA, USA) and probenecid (Invitrogen; 2.5 mM) was dissolved in 20 mL warm dye loading buffer (Hanks’ balanced salt solution with calcium and magnesium, 20 mM Hepes, pH 7.4) and added to each well. Plates were incubated for 60–120 min in a 37 °C cell incubator to allow cells to uptake the dye. […] After dye-loading, the cell plates were placed on the fluorometric imaging plate reader. A total of […] of test compound was added to the […] of dye on the cells, and intracellular Ca^2+ was monitored for 90 s. Intracellular Ca^2+ concentrations were calculated as the maximum increase over basal levels. Responses were normalized to control responses. Data were analyzed by curve fitting.
# [3] = Pharmacokinetics after subcutaneous administration to rats; conditions: sc, 300 nmol/kg
# Protocol: Whole blood samples were immediately centrifuged at 4 °C; separated plasma (~100 uL) was pipetted into micro centrifuge tubes, flash frozen on dry ice, and stored at −80 °C. Quantitative analysis plasma samples were performed by Alturas Analytics (Moscow, ID, USA) via peptide extraction from acidified plasma with acetonitrile followed by LC-MS/MS analysis.
# [4] = male, Sprague Dawley, rat, plasma
# T1 sequence (P30518 whole entry): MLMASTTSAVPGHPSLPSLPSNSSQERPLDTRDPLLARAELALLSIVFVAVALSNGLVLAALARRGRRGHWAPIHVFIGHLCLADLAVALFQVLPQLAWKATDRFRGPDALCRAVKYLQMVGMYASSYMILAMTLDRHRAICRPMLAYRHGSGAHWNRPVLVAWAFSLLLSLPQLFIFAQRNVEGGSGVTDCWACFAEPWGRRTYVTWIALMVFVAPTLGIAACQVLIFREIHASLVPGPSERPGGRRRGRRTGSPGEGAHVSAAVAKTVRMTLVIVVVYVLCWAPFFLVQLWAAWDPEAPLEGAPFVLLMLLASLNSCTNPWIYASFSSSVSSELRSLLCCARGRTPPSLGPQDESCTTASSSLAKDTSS
compound,measurement,setting,value
CCCCCCCCCCCCCCCC(=O)NCCOCCOCCOCCOCCOCCOCCOCCOCCC(=O)NCCCC[C@H](NC(=O)CNC(=O)[C@@H]1CCSCCC(=O)N[C@@H](Cc2ccc(O)cc2)C(=O)N[C@@H]([C@@H](C)CC)C(=O)N[C@@H](CCC(N)=O)C(=O)N[C@@H](CC(N)=O)C(=O)N1)C(=O)NCC(N)=O [ASK2131] (YIQN[hCys]GK([PEG8-Palmitoyl])G-NH2; linker N-5 via X1),V2R activation,human V2 receptor,potent activator of V2R; also recorded: activate V2R
same,decrease in food intake,"[1]; 50 nmol/kg, first 8 days of treatment",35%
same,reduction in food intake,"[1]; 50 nmol/kg, last 8 days of treatment",25%
same,average decline in food intake,"[1]; 50 nmol/kg, whole 22-day treatment",28%
same,"body weight, predicted mean difference (PMD) vs vehicle-treated group","[1]; after 2 days of drug administration, 50 nmol/kg sc, 95% CI −6.52 to −1.15%, p = 0.0011",−3.83%
same,"body weight, predicted mean difference (PMD) vs OXT-treated group","[1]; after 2 days of drug administration, both 50 nmol/kg sc, 95% CI −6.45 to −1.08%, p = 0.0014",−3.77%
same,Posttreatment body weight,"[1]; after 22 days once daily sc, ASK2131 50 nmol/kg, OXT titrated 50 to 600 nmol/kg, n = 6, mean ± SEM",676 ± 42 g
same,% change in body weight,"[1]; after 22 days vs baseline, once daily sc, ASK2131 50 nmol/kg, OXT titrated 50 to 600 nmol/kg, n = 6, mean ± SEM","−6.6 ± 1.3% and −6.6 ± 1.3 ^c,d %"
same,body weight reduction compared to baseline,"[1]; after 22 days, ASK2131 50 nmol/kg sc daily, mean ± standard error",6.6 ± 1.3%
same,"body weight change, mean difference (MD) vs vehicle","[1]; after 22 days, ASK2131 50 nmol/kg/d, 95% CI −15.6 to −7.4, p < 0.0001",−11.5%
same,"cumulative food intake, mean difference (MD) vs vehicle","[1]; after 22 days, ASK2131 50 nmol/kg/d, 95% CI −1031 to −213.1, p < 0.0008",-621.9 kcal
same,reduction of food intake compared to baseline,"[1]; day 3, 50 nmol/kg/d sc",39 ± 9%
same,"food intake, predicted mean difference (PMD) vs vehicle-treated group","[1]; day 3, 50 nmol/kg/d sc, 95% CI −80.47 to −11.51%, p = 0.0102",−45.99%
same,tolerability,"[1]; rat, in vivo",well tolerated
same,water intake,"[1]; rat, in vivo",without relevant changes of water intake
same,body weight reduction (weight loss) vs vehicle at end of treatment,"[1]; study completion, 22 days, ASK2131 50 nmol/kg, OXT titrated up to 600 nmol/kg",11.5%
same,2-day averaged food intake reduction relative to baseline,"[2]; DIO rats, at doses < 2 nmol/kg and > 5 nmol/kg",20–25%
same,loss in body weight compared to baseline,"[2]; DIO rats, once daily sc doses rising every two days from 1 to 100 nmol/kg, average per rat over the treatment period",8.4%
same,decrease in body weight compared to baseline,"[2]; at 2 nmol/kg, after only four treatments",~ 4%
same,adverse response,"[2]; one rat with severe diarrhea was terminated and excluded, result in words",No other animals treated with ASK2131 showed any signs of an adverse response
same,water intake,"[2]; with increased dosing of ASK2131, result in words",not significantly different from baseline
same,Ratio hOXTR/hV2R,hOXTR,3.06
same,Cmax,[3]; [4],276 nM
same,Tmax,[3]; [4],4 h
same,clearance,[3]; [4],1.2 mL/min/kg
same,Cmax (total maximal plasma concentration),"[3]; male lean Sprague Dawley rats, n = 5 per group, LC-MS/MS",276 nM
same,Tmax,"[3]; male lean Sprague Dawley rats, n = 5 per group, plasma, LC-MS/MS",4 h
